Reference: US11541041B1, “Compounds that interact with the Ras superfamily for the treatment of cancers, inflammatory diseases, Rasopathies, and fibrotic disease” (Shy Therapeutics LLC, priority 2017, dated 2023)
Where two headings read alike, the source gives them in different places.

Legend:
TNFα = assay: Mouse TNF alpha quantification assay (LPS-stimulated RAW 264.7, ELISA); format: cell-based; details: RAW 264.7 murine leukemia virus transformed macrophage cell lines, LPS stimulation; for inhibition at 30 µM: Mus musculus, RAW264.7, 30 μM, read-out: TNF-α % Inhibition at 30 μM
Procedure: (§1) Cell lines: Abelson murine leukemia virus transformed macrophage cell line RAW 264.7 was purchased from ATCC and grown in complete DMEM-High Glucose medium supplemented with penicillin (100 U/mL), streptomycin (100 μg/mL), and 10% heat-inactivated FBS at 37° C. in a humidified incubator with 5% CO2.
(§2) Method: Cells were plated at 40000 cells/well density in a 96-wells plate. After a 3-hour incubation, macrophages were starved with DMEM plus 0.5% FBS o/n. The next day the small molecules to be tested were added to the cells in the final concentration of 30 μM (with 0.3% DMSO) 3 hours prior to LPS stimulation (100 ng/ml). After LPS stimulation cells were incubated at 37° C. for 16h. At the end of the incubation period, culture media were collected and production of LPS-induced TNFα and IL6 cytokine was measured using ELISA detection kits.
(§3) Sandwich ELISA: The ELISA Immunoassays Quantikine Mouse TNF-alpha (catalog number MTA00B) and IL6 (catalog number M6000B) were purchased from R&D Systems Inc., Minneapolis, Minn. These 4.5 hours solid phase ELISAs were used to measure mouse TNFα or IL6 levels in macrophages culture supernatants. Assays were executed according to the manufacturer specifications.

IL6 = assay: Mouse IL6 quantification assay (LPS-stimulated RAW 264.7, ELISA); format: cell-based; details: RAW 264.7 murine leukemia virus transformed macrophage cell lines, LPS stimulation; for inhibition at 30 µM: Mus musculus, RAW264.7, 30 μM, read-out: IL-6 % Inhibition at 30 μM
Procedure: as §1, §2, §3

[1] = target: KRas G12D/Q61H double mutant (Homo sapiens (Human), UniProt P01116, G12D/Q61H); assay: Ras GTP binding domain inhibition assay
Chain of KRas G12D/Q61H double mutant (P01116-2 other isoform, or with tags, fused parts or gaps G12D/Q61H): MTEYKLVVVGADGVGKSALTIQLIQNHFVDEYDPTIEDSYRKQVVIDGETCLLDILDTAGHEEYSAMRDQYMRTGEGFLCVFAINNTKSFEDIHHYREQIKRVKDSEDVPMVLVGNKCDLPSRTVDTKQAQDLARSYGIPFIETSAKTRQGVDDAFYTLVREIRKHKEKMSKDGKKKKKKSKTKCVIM
Procedure: (§4) Buffer-I: • 50 mM Tris, pH 7.5 • 150 mM NaCl (optional) • 1 mM MgCl2 • 1 mM DTT. • KRas G12D mutant protein was expressed as a His-tagged protein. Purified His-KRas G12D protein was diluted in buffer-I to a final concentration of 3-10 μg/ml. • 200 μl of the diluted His-KRas G12D protein was added to a nickel coated 96 well plate and incubated overnight at 4° C. • The next day, wells were washed 3× in 200 μl of Buffer-I. • Then 200 μl of Buffer-I were added to each well in the presence of 1% DMSO. • Tested compounds were added to the protein-coated wells at a concentration of 20 μM, and incubated for 3 hours at room temperature. While performing IC50 measurements a serial dilution of all tested concentrations was prepared.
(§5) Then 22 μl of Cy3-GTP or Cy5-GTP was added to each well. The labeled GTP was incubated for 45 min. at room temperature. • Following GTP incubation, wells were washed 3× in Buffer-I, and 200 μl of Buffer-I were added to each well. • Following washes, the amount of bound labeled-GTP was measured with an Eppendorf AF2200 plate reader.
By substituting KRas G12D mutant protein with KRas G12C mutant, KRas wild type, KRas Q61H mutant, KRas G12D/Q61H double mutant or KRas G12C/Q61H double mutant under the assay conditions described above, KRas G12C mutant KRas wild type, KRas Q61H mutant, KRas G12D/Q61H double mutant and KRas G12C/Q61H double mutant inhibition, respectively, were each determined.

Rac-1 = Rac-1 (Homo sapiens (Human), UniProt P63000); assay: Rac and Rho inhibition assay; format: binding; details: read-out: Rac-1 % Inh.
Procedure: as §4, §5
(§6) By substituting KRas G12D mutant protein with either Rac-1 or Rho-A under the assay conditions described in Example 5, Rac-1 and Rho-A inhibition, respectively, were each determined.

Rho-A = Rho-A (Homo sapiens (Human), UniProt P61586); assay: Rac and Rho inhibition assay; format: binding; details: read-out: Rho-A % Inh.
Chain of Rho-A (P61586 whole entry): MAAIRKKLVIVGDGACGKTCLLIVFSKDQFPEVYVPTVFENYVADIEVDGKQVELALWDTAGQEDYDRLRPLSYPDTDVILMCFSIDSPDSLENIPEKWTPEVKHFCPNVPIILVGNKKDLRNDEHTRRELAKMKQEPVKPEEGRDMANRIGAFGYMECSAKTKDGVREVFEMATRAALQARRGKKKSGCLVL
Procedure: as §4, §5, §6

[2] = 20 μM, read-out: KRas G12D Q61H % Inh.
[3] = 20 μM compound, read-out: % Inhibition at 20 μM, KRas G12D Q61H
[4] = at 20 μM, read-out: KRas G12D Q61H % Inh.

Row | SMILES | inhibition at 20 µM (Rac-1) [%] | inhibition at 20 µM (Rho-A) [%] | other results
1 | Cn1cc(-c2nc(C(=O)Nc3nnc(-c4ccccn4)[nH]3)cs2)cn1 |  |  | inhibition at 30 µM (TNFα): 0%
2 | Cc1ccc(CC(=O)Nc2nnc(-c3ccccn3)[nH]2)cc1 |  |  | inhibition at 30 µM (IL6): 51 to 75%
3 | Cc1sc2c(O)nc(-c3ccccn3)nc2c1-c1ccccc1 |  |  | TNF-α % Inhibition at 30 μM (TNFα): A (A = 1-25% inhibition); IL-6 % Inhibition at 30 μM (IL6): C (C = 51-75% inhibition)
4 | COC(=O)c1csc2nc(-c3ccccn3)nc(O)c12 |  |  | inhibition at 30 µM (TNFα): 0%; inhibition at 30 µM (IL6): 51 to 75%
5 | O=C(O)c1csc2nc(-c3ccccn3)nc(O)c12 |  |  | inhibition at 30 µM (TNFα): 1 to 25%; inhibition at 30 µM (IL6): 1 to 25%
6 | Oc1nc(-c2ccccn2)nc2c(-c3cccnc3)c(C(F)(F)F)sc12 |  |  | inhibition at 30 µM (TNFα): 0%; inhibition at 30 µM (IL6): 51 to 75%
7 | Nc1nc(-c2ccccn2)nc2c(C3CCCCC3)csc12 |  |  | inhibition at 30 µM (TNFα): 0%; inhibition at 30 µM (IL6): 0%
8 | Nc1nc(-c2ccccn2)nc2c(C3CCCC3)csc12 |  |  | inhibition at 30 µM (TNFα): 26 to 50%; inhibition at 30 µM (IL6): 51 to 75%
9 | O=c1nc(-c2ccccn2)[nH]c2ccsc12 |  |  | inhibition at 20 µM [1, 2]: 51 to 75%
10 | O=[N+]([O-])c1cc(C(F)(F)F)ccc1Sc1nc2c(c(C(F)(F)F)n1)CCCC2 |  |  | inhibition at 20 µM [1, 2]: 51 to 75%
11 | CCOC(=O)c1ccnc(N2CCC(C)CC2c2ccc(CC)o2)c1[N+](=O)[O-] (stereo not shown) |  |  | inhibition at 20 µM [1, 2]: 51 to 75%
12 | CCC1=CC2C(=O)NC(c3ccccn3)=NC2S1 (stereo not shown) |  |  | inhibition at 20 µM [1, 3]: 25 to 50%
13 | O=c1[nH]c(-c2cncc(OCC(F)F)c2)nc2cc(F)c(F)cc12 |  |  | inhibition at 20 µM [1, 3]: 25 to 50%
14 | CN(C(=O)c1ccc(COc2ccccc2F)o1)c1cccs1 |  |  | inhibition at 20 µM [1, 3]: 25 to 50%
15 | C=C(CNc1nc(-c2ccccn2)nc2scc(-c3ccccc3)c12)NC |  |  | inhibition at 20 µM [1, 3]: 25 to 50%
16 | CCN(Cc1cnc(S(=O)(=O)N(C)C)o1)c1ccccc1 |  |  | inhibition at 20 µM [1, 3]: 25 to 50%
17 | CCOc1ccc(C(F)(F)F)cc1NCc1ncc(C)o1 |  |  | inhibition at 20 µM [1, 3]: 25 to 50%
18 | FC(F)(F)c1cccc(N2CCN(c3cc(Cl)nc4ncnn34)CC2)c1 |  |  | inhibition at 20 µM [1, 3]: 25 to 50%
19 | O=C(c1ccc(S(=O)(=O)N2CCOCC2)cc1)N(Cc1ccccc1)Cc1cccs1 |  |  | inhibition at 20 µM [1, 3]: 1 to 25%
20 | CCOC(=O)c1cnc(N(C2CC2)S(=O)(=O)c2ccc(OC)c(C)c2)s1 |  |  | inhibition at 20 µM [1, 3]: 1 to 25%
21 | C=CCc1cc(COC)ccc1OCC(=O)NCc1ccc(OC)cc1 |  |  | inhibition at 20 µM [1, 3]: 25 to 50%
22 | O=C1C2C=CC=CC2OC(O)C1Cc1cc(Cl)c2cccnc2c1O (stereo not shown) |  |  | inhibition at 20 µM [1, 3]: 25 to 50%
23 | COc1ccc(N2CCN(C(=O)c3csc4c(O)cc(-c5ccccn5)cc34)CC2)cc1O | 76 to 100 | 76 to 100 | inhibition at 20 µM [1, 4]: 1 to 25%
24 | O=C(c1csc2c(O)nc(-c3ccccn3)nc12)N1CCN(c2ccc(O)c(O)c2)CC1 | 76 to 100 | 76 to 100 | inhibition at 20 µM [1, 4]: 51 to 75%
25 | O=C(c1csc2c(O)nc(-c3ccccn3)nc12)N1CCNC(c2ccc(O)cc2)C1 (stereo not shown) | 76 to 100 | 76 to 100 | 
26 | COCCCCNC(=O)c1csc2nc(-c3ccccn3)nc(O)c12 | 1 to 25 | 1 to 25 | inhibition at 20 µM [1, 4]: 1 to 25%

Row | SMILES | inhibition at 20 µM (Rac-1) [%] | inhibition at 20 µM (Rho-A) [%] | other results
27 | CN(C)Cc1ccc(-c2csc3c(O)nc(-c4ccccn4)nc23)cc1F | 76 to 100 | 76 to 100 | 
28 | COCc1ccc(-c2csc3c(O)nc(-c4ccccn4)nc23)cc1F | 76 to 100 |  | 
29 | O=C(c1csc2c(O)nc(-c3ccccn3)nc12)N1CCNC(c2cn[nH]c2)C1 (stereo not shown) | 76 to 100 |  | 
30 | CC(C)COc1ccc(-c2csc3c(O)nc(-c4ccccn4)nc23)cn1 | 76 to 100 |  | 
31 | Oc1nc(-c2ccccn2)nc2c(-c3ccccc3C(F)F)csc12 | 76 to 100 | 76 to 100 | 
32 | COc1cc(-c2csc3c(O)nc(-c4ccccn4)nc23)cnc1C(F)(F)F |  | 51 to 75 | 
33 | Oc1nc(-c2ccccn2)nc2c(-c3ccc4c(c3)CCCO4)csc12 |  | 51 to 75 | 
34 | CCC1N=C(C)C=C1c1csc2c(O)nc(-c3ccccn3)nc12 (stereo not shown) | 51 to 75 | 76 to 100 | inhibition at 20 µM [1, 4]: 51 to 75%
35 | Oc1nc(-c2ccccn2)nc2c(-c3cnc4ccccc4c3)csc12 | 51 to 75 | 51 to 75 | 
36 | Oc1nc(-c2ccccn2)nc2c(-c3cc(C(F)(F)F)ccc3F)csc12 |  | 1 to 25 | 
37 | Oc1nc(-c2ccccn2)nc2c(-c3cncc(C(F)(F)F)c3)csc12 | 1 to 25 |  | 
38 | CCC(C)c1csc2c(OC)nc(-c3ccccn3)nc12 (stereo not shown) | 76 to 100 |  | 
39 | Cc1c(C(=O)N2CCN(c3ccccc3)CC2)sc2c(O)nc(-c3ccccn3)nc12 |  | 76 to 100 | 
40 | COC(=O)c1c(C)sc2nc(-c3ccccn3)nc(N)c12 | 25 to 50 | 51 to 75 | 
41 | CN(C)CCOc1cccc(-c2csc3c(O)nc(-c4ccccn4)nc23)c1 | 76 to 100 | 76 to 100 | 
42 | Cc1sc2c(O)nc(-c3ccccn3)nc2c1C(=O)N1CCN(Cc2cccc(O)c2)CC1 | 76 to 100 | 76 to 100 | 
43 | Oc1nc(-c2ccccn2)nc2c(C3CC3)csc12 |  | 51 to 75 | 
44 | COc1cnc(CNC(=O)c2c(C)sc3c(O)nc(-c4ccccn4)nc23)[nH]c1=O | 1 to 25 | 1 to 25 | 
45 | O=C(c1csc2c(O)nc(-c3ccccn3)nc12)N1CCNC(c2ccc(Cl)cc2)C1 (stereo not shown) | 76 to 100 | 76 to 100 | 
46 | Cc1sc2c(O)nc(-c3ccccn3)nc2c1Br [drawing 2319] |  |  | IL-6 % Inhibition at 30 μM (IL6): A (A = 1-25% inhibition)
47 | Cc1sc2c(O)nc(-c3ccccn3)nc2c1Br [drawing 2383] |  |  | TNF-α % Inhibition at 30 μM (TNFα): 0 (0 = 0% inhibition)
48 | COc1ccc(CCNC(=O)c2csc3nc(-c4ccccn4)nc(N4CCSCC4)c23)cn1 [drawing 3751] | 25 to 50 | 1 to 25 | inhibition at 20 µM [1, 4]: 25 to 50%
49 | O=C(NCCc1cnc(O)nc1)c1csc2nc(-c3ccccn3)nc(N3CCSCC3)c12 [drawing 3752] | 51 to 75 | 51 to 75 | inhibition at 20 µM [1, 4]: 25 to 50%
50 | Cc1cc2nc(-c3ccccn3)nc(O)c2s1 [drawing 3817] | 76 to 100 | 76 to 100 | 
51 | OC[C@H]1O[C@@H](c2csc3c2N=C(c2ccccn2)NC3O)[C@H](O)[C@@H]1O (stereo partly shown) [drawing 3871] | 51 to 75 | 51 to 75 | 
52 | COCCNc1nc(-c2nccn2C)nc2sc(-c3ccccc3)c(-c3ccccc3)c12 [drawing 3879] | 76 to 100 | 51 to 75 | 
